US11491132B2, “Methods for treating thrombocytopenia” (Enzychem Lifesciences Corporation, priority 2014, dated 2022)

Assays:
C3 [1] = assay: C3 expression in IL-4/TNF-α treated HMC-1 cells, RT-PCR; format: cell-based, human; settings: HMC-1 cells treated with IL-4 and TNF-α; PLAG 0.1 and 1 μg/mL pre-treatment, or S6I
Description: A blood cell line, HMC-1 (human mast cell, American Type Culture Collection, ATCC, Rockville, Md.) is incubated and maintained at 37° C. under 5% CO2 humid conditions. The medium is IMDM (Life Technologies, Karlsruhe, Germany) containing 10% Fetal Calf Serum (FCS, HyClone, Logan, Utah), 2 mM […], 100 μg/ml penicillin, 100 μg/ml streptomycin (Life Technologies). The cultured HMC-1 cells (1×10^6 cell/ml) are pre-treated with 0.1 and 1 μg/mL concentration of PLAG, followed by treating with IL-4 (5 ng) and/or TNF-α (10 ng) to induce cellular activities.
The expressed C3 and its mRNA level change are observed by using RT-PCR (Reverse Transcriptase Polymerase Chain Reaction). The RT-PCR is carried out as follows: the total RNA is separated by the standard protocol and cDNA is synthesized using AccuScript High Fidelity 1st Strand cDNA Synthesis Kit (Stratagene) by the manufacturer's instructions. Two-step RT-PCR reaction is conducted using Oligo-dT primer and reverse transcriptase, pair of primer and Taq polymerase (Takara, Shiga, Japan). […] The product of PCR is separated using 1.5% agarose gel, dyed with ethidium bromide (EtBr), and visualized with Gel Doc 2000 UV trans-illuminator (Bio-Rad Laboratories, Hercules, Calif., USA), and the experimental data is analyzed using Quantity One software (Bio-Rad Laboratories).

C3 [2] = assay: C3 expression in HepG2 cell line, RT-PCR of mRNA; format: cell-based, human; settings: HepG2 cells, S6I 10 and 100 microgram/ml, relative to PLAG 1 and 10 microgram/ml
Description: A liver cell line, HepG2 (American Type Culture Collection, ATCC, Rockville, Md.), is incubated and maintained at 37° C., 5% CO2 humid atmosphere in DMEM medium. When HepG2 cells, which are known to produce complement in culture, are treated with PLAG, the activity of complement is reduced effectively, as confirmed by RT-PCR of mRNA. In the RT-PCR, 5×10^5 number of HepG2 cells/ml are distributed into 12 well plates and induced C3 for 12 hours with 10% FCS. Then PLAG is added and further cultured for 2 hours. Cells are harvested and mRNA is isolated and RT-PCR is carried out with specific primer of C3; GAPDH is used as an internal control.

[3] = tested on: white blood cells and neutrophils; assay: PLAG in combination with G-CSF in cyclophosphamide-treated mouse model; format: in vivo, mice; settings: cyclophosphamide 100 mpk i.p. ten days; G-CSF 0.25 mpk i.p.; PLAG 25 mpk p.o.
Source text: Mice receive cyclophosphamide (100 mpk, i.p.) for a period of ten days, with or without G-CSF (0.25 mpk, i.p.) or G-CSF (0.25 mpk, i.p.) plus PLAG (25 mpk, p.o.): […]

| Compound | expression of C3 (C3 [1]) | inhibition of C3 expression (RT-PCR) (C3 [2]) | Neutrophils [3] | White blood cells (WBCs) [3] |
| --- | --- | --- | --- | --- |
| NC(=O)c1cnc(NCCc2ccc(O)c(Cl)c2)nc1NCc1ccccc1 [S6I, reference compound] | suppresses expression of C3 | comparable |  |  |
| G-CSF: Granulocyte-colony stimulating factor, a glycoprotein that stimulates hematopoietic precursor cells in the bone marrow |  |  | 4.36 k/μl | 5.37 k/μl |
